# Results: patent US12552783B2, “Modulators of proteolysis and associated methods of use” (Arvinas Operations, Inc., priority 2018, dated 2026)
# Molecular target: KRas (Homo sapiens, UniProt P01116, G12C)
# Assay: KRas degradation in NCI-H2030 cells by Western blot, normalized to GAPDH (data of Table 14)
# Format: cell-based
# Parameters: host or cells: NCI-H2030
# Settings: for Dmax: NCI-H2030
# Summary of the method: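 KRas/GAPDH band ratio vs DMSO lane gives % degradation; values under 25% were estimated visually, the rest quantitated. Cells are G12C homozygous, serum-free for 24 h, then dosed at 0.3/1/3 μM (0.1% DMSO). VHL-based compounds 24 h, others 72 h.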
structure (smiles),measurement,setting,value
"C=CC(=O)N1CCN(c2nc(NCCC(=O)N(C)CCOCCOc3cc(-c4scnc4C)ccc3CNC(=O)[C@@H]3C[C@@H](O)CN3C(=O)[C@H](c3cc(C)no3)C(C)C)nc3c(F)c(-c4cc(O)cc5ccccc45)c(Cl)cc23)CC1 [compound 340, (2S,4R)-N-(2-(2-(2-(3-((4-(4-acryloylpiperazin-1-yl)-6-chloro-8-fluoro-7-(3-hydroxynaphthalen-1-yl)quinazolin-2-yl)amino)-N-methylpropanamido)ethoxy)ethoxy)-4-(4-methylthiazol-5-yl)benzyl)-4-hydroxy-1-((S)-3-methyl-2-(3-methylisoxazol-5-yl)butanoyl)pyrrolidine-2-carboxamide]",Percent Degradation at Indicated Concentration (μM): 0.3,"H2030 cells, 0.3 μM",C (C ≤ 35)
same,Percent Degradation at Indicated Concentration (μM): 1,"H2030 cells, 1 μM",C (C ≤ 35)
same,Percent Degradation at Indicated Concentration (μM): 3,"H2030 cells, 3 μM",C (C ≤ 35)
same,Dmax,H2030 cells,≤ 35%
"C=CC(=O)N1CCN(c2nc(NCCC(=O)N(C)CCOCCOCCOCCOCCOc3cc(-c4scnc4C)ccc3CNC(=O)[C@@H]3C[C@@H](O)CN3C(=O)[C@H](c3cc(C)no3)C(C)C)nc3c(F)c(-c4cc(O)cc5ccccc45)c(Cl)cc23)CC1 [compound 346, (2S,4R)-N-(2-((18-((4-(4-acryloylpiperazin-1-yl)-6-chloro-8-fluoro-7-(3-hydroxynaphthalen-1-yl)quinazolin-2-yl)amino)-15-methyl-16-oxo-3,6,9,12-tetraoxa-15-azaoctadecyl)oxy)-4-(4-methylthiazol-5-yl)benzyl)-4-hydroxy-1-((S)-3-methyl-2-(3-methylisoxazol-5-yl)butanoyl)pyrrolidine-2-carboxamide]",Percent Degradation at Indicated Concentration (μM),"H2030, 0.3 μM",C (Percent Degradation: C ≤ 35)
same,Percent Degradation at Indicated Concentration (μM),"H2030, 1 μM",C (Percent Degradation: C ≤ 35)
same,Percent Degradation at Indicated Concentration (μM),"H2030, 3 μM",C (Percent Degradation: C ≤ 35)
same,Dmax,,≤ 35%
"C=CC(=O)N1CCN(c2nc(NCCC(=O)N(C)CCOCCOCCOCCOCCOCCOCCOCCOCCOCCOCC(=O)N[C@H](C(=O)N3C[C@H](O)C[C@H]3C(=O)N[C@@H](C)c3ccc(-c4scnc4C)cc3)C(C)(C)C)nc3c(F)c(-c4cc(O)cc5ccccc45)c(Cl)cc23)CC1 [compound 198, (2S,4R)-1-((2S)-39-((4-(4-acryloylpiperazin-1-yl)-6-chloro-8-fluoro-7-(3-hydroxynaphthalen-1-yl)quinazolin-2-yl)amino)-2-(tert-butyl)-36-methyl-4,37-dioxo-6,9,12,15,18,21,24,27,30,33-decaoxa-3,36-diazanonatriacontanoyl)-4-hydroxy-N-((S)-1-(4-(4-methylthiazol-5-yl)phenyl)ethyl)pyrrolidine-2-carboxamide]",Percent Degradation at Indicated Concentration (μM),"H2030, 0.3 μM",C (Percent Degradation: C ≤ 35)
same,Percent Degradation at Indicated Concentration (μM),"H2030, 1 μM",C (Percent Degradation: C ≤ 35)
same,Percent Degradation at Indicated Concentration (μM),"H2030, 3 μM",C (Percent Degradation: C ≤ 35)
same,Dmax,,≤ 35%
"CCC(=O)N1CCN(c2nc(NCCC(=O)N(C)CCOCC(=O)N[C@H](C(=O)N3C[C@H](O)C[C@H]3C(=O)N[C@@H](C)c3ccc(-c4scnc4C)cc3)C(C)(C)C)nc3c(F)c(-c4cc(O)cc5ccccc45)c(Cl)cc23)CC1 [compound 186, (2S,4R)-1-((2S)-2-(2-(2-(3-((6-chloro-8-fluoro-7-(3-hydroxynaphthalen-1-yl)-4-(4-propionylpiperazin-1-yl)quinazolin-2-yl)amino)-N-methylpropanamido)ethoxy)acetamido)-3,3-dimethylbutanoyl)-4-hydroxy-N-((S)-1-(4-(4-methylthiazol-5-yl)phenyl)ethyl)pyrrolidine-2-carboxamide]",Percent Degradation at Indicated Concentration (μM): 0.3,"H2030 cells, 0.3 μM",C (C ≤ 35)
same,Percent Degradation at Indicated Concentration (μM): 1,"H2030 cells, 1 μM",C (C ≤ 35)
same,Percent Degradation at Indicated Concentration (μM): 3,"H2030 cells, 3 μM",C (C ≤ 35)
same,Dmax,H2030 cells,≤ 35%
C=CC(=O)N1CCN(c2nc(O[C@H](C)CN3CCC(OCCOCCOCCOCC(=O)N[C@H](C(=O)N4C[C@H](O)C[C@H]4C(=O)N[C@@H](C)c4ccc(-c5scnc5C)cc4)C(C)(C)C)CC3)nc3c2CCN(c2cc(O)cc4ccccc24)C3)CC1 [compound 408],Percent Degradation at Indicated Concentration (μM),"H2030 cells, 0.3 μM",C (Percent Degradation: C ≤ 35)
same,Percent Degradation at Indicated Concentration (μM),"H2030 cells, 1 μM",C (Percent Degradation: C ≤ 35)
same,Percent Degradation at Indicated Concentration (μM),"H2030 cells, 3 μM",C (Percent Degradation: C ≤ 35)
"C=CC(=O)N1CCN(c2nc(OC3CCN(CCOCCOCCOCCOCC(=O)N[C@H](C(=O)N4C[C@H](O)C[C@H]4C(=O)N[C@@H](C)c4ccc(-c5scnc5C)cc4)C(C)(C)C)CC3)nc3c(F)c(-c4cc(O)cc5ccccc45)c(Cl)cc23)CC1 [compound 474, (2S,4R)-1-((2S)-17-(4-((4-(4-acryloylpiperazin-1-yl)-6-chloro-8-fluoro-7-(3-hydroxynaphthalen-1-yl)quinazolin-2-yl)oxy)piperidin-1-yl)-2-(tert-butyl)-4-oxo-6,9,12,15-tetraoxa-3-azaheptadecanoyl)-4-hydroxy-N-((S)-1-(4-(4-methylthiazol-5-yl)phenyl)ethyl)pyrrolidine-2 carboxamide]",Percent Degradation at Indicated Concentration (μM),"H2030, 0.3 μM",C (Percent Degradation: C ≤ 35)
same,Percent Degradation at Indicated Concentration (μM),"H2030, 1 μM",C (Percent Degradation: C ≤ 35)
same,Percent Degradation at Indicated Concentration (μM),"H2030, 3 μM",C (Percent Degradation: C ≤ 35)
same,Dmax,,≤ 35%
C=CC(=O)N1CCN(c2nc(NCCC(=O)N(C)CCOCCOCCOCCOc3cc(-c4scnc4C)ccc3CNC(=O)[C@@H]3C[C@@H](O)CN3C(=O)[C@H](c3cc(C)no3)C(C)C)nc3c(F)c(-c4cc(O)cc5ccccc45)c(Cl)cc23)CC1 [compound 344],Percent Degradation at Indicated Concentration (μM),"H2030, 0.3 μM",C (Percent Degradation: C ≤ 35)
same,Percent Degradation at Indicated Concentration (μM),"H2030, 1 μM",C (Percent Degradation: C ≤ 35)
same,Percent Degradation at Indicated Concentration (μM),"H2030, 3 μM",C (Percent Degradation: C ≤ 35)
same,Dmax,,≤ 35%
"CCC(=O)N1CCN(c2nc(NCCC(=O)N(C)CCOCCOCCNc3cccc4c3C(=O)N(C3CCC(=O)NC3=O)C4=O)nc3c(F)c(-c4cc(O)cc5ccccc45)c(Cl)cc23)CC1 (centres unmarked) [compound 43, 3-((6-chloro-8-fluoro-7-(3-hydroxynaphthalen-1-yl)-4-(4-propionylpiperazin-1-yl)quinazolin-2-yl)amino)-N-(2-(2-(2-((2-(2,6-dioxopiperidin-3-yl)-1,3-dioxoisoindolin-4-yl)amino)ethoxy)ethoxy)ethyl)-N-methylpropanamide]",Percent Degradation at Indicated Concentration (μM): 0.3,"H2030 cells, 0.3 μM",C (C ≤ 35)
same,Percent Degradation at Indicated Concentration (μM): 1,"H2030 cells, 1 μM",C (C ≤ 35)
same,Percent Degradation at Indicated Concentration (μM): 3,"H2030 cells, 3 μM",C (C ≤ 35)
same,Dmax,H2030 cells,≤ 35%
C=CC(=O)N1CCN(c2nc(NCCC(=O)N(C)CCOc3cc(-c4scnc4C)ccc3CNC(=O)[C@@H]3C[C@@H](O)CN3C(=O)[C@@H](c3cc(C)no3)C(C)C)nc3c(F)c(-c4cc(O)cc5ccccc45)c(Cl)cc23)CC1 [compound 337],Percent Degradation at Indicated Concentration (μM),"H2030, 0.3 μM",C (Percent Degradation: C ≤ 35)
same,Percent Degradation at Indicated Concentration (μM),"H2030, 1 μM",C (Percent Degradation: C ≤ 35)
same,Percent Degradation at Indicated Concentration (μM),"H2030, 3 μM",C (Percent Degradation: C ≤ 35)
same,Dmax,,≤ 35%
"C=CC(=O)N1CCN(c2nc(NCCC(=O)N(C)CCOCCOCCOCCOc3ccc4c(c3)CN(C3CCC(=O)NC3=O)C4=O)nc3c(F)c(-c4c(O)cccc4F)c(Cl)cc23)CC1 [compound 93, 3-((4-(4-acryloylpiperazin-1-yl)-6-chloro-8-fluoro-7-((S)-2-fluoro-6-hydroxyphenyl)quinazolin-2-yl)amino)-N-(2-(2-(2-(2-((2-(2,6-dioxopiperidin-3-yl)-1-oxoisoindolin-5-yl)oxy)ethoxy)ethoxy)ethoxy)ethyl)-N-methylpropanamide]",Percent Degradation at Indicated Concentration (μM),"H2030, 0.3 μM",C (Percent Degradation: C ≤ 35)
same,Percent Degradation at Indicated Concentration (μM),"H2030, 1 μM",C (Percent Degradation: C ≤ 35)
same,Percent Degradation at Indicated Concentration (μM),"H2030, 3 μM",C (Percent Degradation: C ≤ 35)
same,Dmax,,≤ 35%
"CN[C@@H](C)C(=O)N[C@H](C(=O)N1CCC[C@H]1c1nc(-c2ccc(OCCOCCOCCOCCOCCN(C)C(=O)CCNc3nc(N4CCN(C(C)=O)CC4)c4cc(Cl)c(-c5cc(O)cc6ccccc56)c(F)c4n3)c3ccccc23)cs1)C1CCCCC1 [compound 269, 3-((4-(4-acetylpiperazin-1-yl)-6-chloro-8-fluoro-7-(3-hydroxynaphthalen-1-yl)quinazolin-2-yl)amino)-N-(14-((4-(2-((S)-1-((S)-2-cyclohexyl-2-((S)-2-(methylamino)propan-amido)acetyl)pyrrolidin-2-yl)thiazol-4-yl)naphthalen-1-yl)oxy)-3,6,9,12-tetraoxatetradecyl)-N-methylpropanamide]",Percent Degradation at Indicated Concentration (μM),"H2030, 0.3 μM",C (Percent Degradation: C ≤ 35)
same,Percent Degradation at Indicated Concentration (μM),"H2030, 1 μM",C (Percent Degradation: C ≤ 35)
same,Percent Degradation at Indicated Concentration (μM),"H2030, 3 μM",C (Percent Degradation: C ≤ 35)
same,Dmax,,≤ 35%
"Cc1ncsc1-c1ccc([C@H](C)NC(=O)[C@@H]2C[C@@H](O)CN2C(=O)[C@@H](NC(=O)COCCOCCOCCN(C)C(=O)CCNc2nc(N3CCN(C(=O)C(O)O)CC3)c3cc(Cl)c(-c4c(O)cccc4F)c(F)c3n2)C(C)(C)C)cc1 (atropisomer, axis not shown) [compound 238, (2S,4R)-1-((S)-2-(tert-butyl)-18-((6-chloro-4-(4-(2,2-dihydroxyacetyl)piperazin-1-yl)-8-fluoro-7-((S)-2-fluoro-6-hydroxyphenyl)quinazolin-2-yl)amino)-15-methyl-4,16-dioxo-6,9,12-trioxa-3,15-diazaoctadecanoyl)-4-hydroxy-N-((S)-1-(4-(4-methylthiazol-5-yl)phenyl)ethyl)pyrrolidine-2-carboxamide]",Percent Degradation at Indicated Concentration (μM),"H2030 cells, 3 μM",C (Percent Degradation: C ≤ 35)
